In patent US9956268B2, “Neuropeptide Y treatment of autoimmune disease” (priority 2012, dated 2018):

How the values were obtained:
[1] = test system: innate immune cytokines IL-1β or TNF-α; details: oral, recent EAE experiments; cited from earlier work
[2] = test system: spinal cords of MOG peptide 35-55 immunized B6 mice; assay: Spinal cord histology, inflammatory foci, actively fed mice; assay type: in vivo; details: thirty days following immunization, mock fed 11.6±0.5
Procedure: Following sacrifice, spinal cords were removed and immersion fixed in 10% neutral buffered formalin for a minimum of two weeks. After fixation, cords were sectioned in entirety in the horizontal plane at approximately 3 mm intervals and processed to paraffin. Paraffin blocks were sectioned at 6-8 microns, and step sections were stained with hematoxylin and eosin and examined by light microscopy. Cord sections were evaluated independently for foci of inflammation by a blinded observer (SAB), without knowledge of the treatment status of the mice prior to sacrifice. Spinal cord tissue was sampled in an identical fashion for each animal and numbers of inflammatory foci per high-powered field (HPF) (>20 perivascular lymphocytes) in the parenchyma were counted.

[3] = test system: CNS lymphocytes stimulated with MOG peptide 35-55; assay: Cytokine secretion, MOG re-stimulated CNS (spinal cord) lymphocytes of fed mice; assay type: in vivo, B6 mice
Procedure: (§1) Spleens and spinal cords (CNS) from each treatment group were aseptically removed and single cell suspensions prepared. In spinal cords, whole cords were passed through a cell strainer for CNS lymphocytes (B & D, Franklin Lakes, N.J.) and spun at 600 rpm several times to separate lymphocytes from CNS tissue. Splenocytes and cord lymphocytes from grouped saline fed or 10 mcg NPY fed mice were stimulated with 10 mcg MOG peptide 35-55×48 hours as previously described (5, 6). Murine cytokine responses were examined using a customized RayBio Mouse Cytokine Inflammatory Antibody Array including innate cytokine IL-1β and TNF-α, IL-17 (Teff), Th1-like (IL-2, IFN-γ), Th2-like cytokines (IL-4, IL-10, IL-13) and IL-12p70 using the RayBioantibody array Analysis tool application (RayBiotech, Inc, Norcross, Ga.). Results were grouped from mice fed saline or mice fed with NPY from grouped samples of two separate experiments (each sample performed in duplicate) and expressed as pg/ml±SEM (student t-test).

[4] = test system: experimental autoimmune encephalomyelitis; details: parenteral, mice; cited from earlier work
[5] = test system: active MOG peptide 35-55 immunized recipient mice; assay: Adoptive transfer of splenocytes from neuropeptide Y fed donors, clinical score of recipients; assay type: in vivo, B6 mice; details: placebo donors maximum 2.3
[6] = test system: MOG peptide 35-55 immunized B6 mice (experimental autoimmune encephalomyelitis); assay: Active EAE, ingested neuropeptide Y, clinical score; assay type: in vivo; details: vs placebo, p<0.001 ANOVA
[7] = test system: CD4+CD25+FoxP3+ Treg; assay: Phenotypic analysis (FACS) of Treg frequency; assay type: in vivo, B6 mice; details: data not shown
Procedure: CD25 and FOXP3 expression by CD3+CD4+ lymphocytes was analyzed using the Beckman Coulter 10-Color Gallios Flow Cytometer and mouse regulatory T Cell Staining Kit with PE Foxp3 FJK-16s, FITC CD4, APC CD25 (eBioscience, San Diego, Calif.) following the manufacturer's instructions.

[8] = Toxicity on extended oral administration; assay type: in vivo; details: orally administered to mice over an extended time period
[9] = test system: CNS lymphocytes of recipients stimulated with MOG peptide 35-55; assay: Cytokine secretion, CNS lymphocytes of recipients of donor cells; assay type: in vivo, B6 mice
Procedure: (§2) Thirty days after inoculation and after peak score of clinical attack, all spleens from each treatment group were aseptically removed, single cell suspensions prepared, and red cell lysis performed by adding 2-3 ml sterile water to single cells for 5 seconds, and once the solution became transparent, adding AIM-V media to a 50 ml tube. Splenocytes from grouped saline (mock) fed, 1 μg or 10 μg neuropeptide Y fed mice were re-stimulated with MOG peptide 35-55 at a final concentration of 10 μg/ml for 48 hours in serum free medium (AIM-V medium, Gibco BRL, Grand Island, N.Y.) with 2×10^5 cells/[…] in triplicate in 96 well U-bottomed plates in a humidified 5% CO2/95% air incubator at 37° C. Following incubation, cells were collected, washed twice in PBS, and viability determined by standard Trypan blue exclusion. Viable concentrations were adjusted to 10^7 cells/0.5 ml Dulbecco's PBS immediately prior to i.p. injection into active MOG peptide 35-55 immunized recipient mice during ongoing disease (˜day 17 post immunization). Following administration of neuropeptide Y or adoptive transfer, clinical outcome is measured by comparing the difference between group mean active treatment and placebo group scores from day 17-30 post immunization.
as §1

[10] = test system: splenocytes of recipients stimulated with MOG peptide 35-55; assay: Cytokine secretion, splenic lymphocytes of recipients of donor cells; assay type: in vivo, B6 mice
Procedure: as §2, §1

[11] = test system: spinal cords of recipient mice; assay: Spinal cord histology, inflammatory foci, recipients of adoptively transferred cells; assay type: in vivo, B6 mice; details: thirteen days following adoptive transfer, placebo donors 7.48±0.28
Procedure: as §2, with “Viable concentrations were adjusted to 10^7 cells/0.5 ml Dulbecco's PBS immediately prior to i.p. injection into active MOG peptide 35-55 immunized recipient mice during ongoing disease (˜day 17 post immunization).” left out
Following sacrifice, spinal cords were removed and immersion fixed in 10% neutral buffered formalin for a minimum of two weeks. […] Cord sections were evaluated independently for foci of inflammation by a blinded observer (SAB), without knowledge of the treatment status of the mice prior to sacrifice. […]

[12] = test system: actively immunized recipients (ongoing disease); assay: Adoptive transfer of in vitro neuropeptide Y treated MOG restimulated activated macrophages; assay type: in vivo; details: preliminary experiments
[13] = test system: splenic lymphocytes stimulated with MOG peptide 35-55; assay: Cytokine secretion, MOG re-stimulated splenic lymphocytes of fed mice; assay type: in vivo, B6 mice
Procedure: as §1

[14] = CNS lymphocytes of recipients of fed donor cells vs mock
[15] = CNS lymphocytes of recipients, 10 mcg fed group vs mock
[16] = splenic lymphocytes of recipients of fed donor cells vs mock
[17] = both fed groups (1 & 10 mcg) vs mock fed

## Adrenocorticotropin hormone (SYSMEHFRWGKPVGKKRRPVKVYPNGAEDESAEAFPLEF; Corticotropin; UniProt P01189 138-176, looked up) [ACTH]
[1]
  reduction of innate immune cytokines IL-1β or TNF-α: no reduction

## Neuropeptide Y
[2]; 1 mcg fed group
  mean group inflammatory score (inflammatory foci): 6.4±0.16
[2]; 10 mcg fed group
  mean group inflammatory score (inflammatory foci): 5.55±0.28
[3]; dosed vs mock dosed
  MOG induced IL-13 production: increased
[3]; fed vs mock fed
  IFN-γ level: significant decreases
  IL-1β level: significant decreases
  IL-2 level: significant decreases
  IL-12 level: significant decreases
  IL-17 (Teff) level: significant decreases
  TNF-α level: significant decreases
[4]
  induction of experimental autoimmune encephalomyelitis: significantly inhibits
[5]; recipients of donor splenocytes from 1 mcg fed mice
  group clinical score at day 30: 1.4
[5]; recipients of donor splenocytes from 10 mcg fed mice
  group clinical score at day 30: 0.88
[6]; 1 mcg fed (gavage) from day 17, days 17-30 post immunization
  group clinical score: significant decreases in group clinical scores
[6]; 10 mcg fed (gavage) from day 17, days 17-30 post immunization
  group clinical score: significant decreases in group clinical scores
[7]; actively fed mice vs mock fed
  CD4+CD25+FoxP3+ cell frequency: no significant increase
[7]; recipients of actively fed donor cells vs mock
  CD4+CD25+FoxP3+ cell frequency: no significant increase
[8]
  toxicity: no detectable toxicity
[9]; [14]
  IL-1β level: significant decreases
  IL-17 (Teff) level: significant decreases
[9]; CNS lymphocytes of recipients of fed donor cells vs mock, p<0.03 (FIG. 8 legend)
  IL-12 level: decreased
[9]; CNS lymphocytes of recipients, 1 mcg fed group vs mock
  MOG induced IL-10 production: increased
[9]; [15]
  IFN-γ level: significant decreases
  IL-2 level: significant decreases
  TNF-α level: significant decreases
[9]; CNS lymphocytes of recipients, both dosed groups vs mock
  MOG induced IL-13 production: increased
[10]; [16]
  IFN-γ level: significant decreases
  IL-1β level: significant decreases
  IL-12 level: significant decreases
  IL-17 (Teff) level: significant decreases
  MOG induced IL-13 production: increased
  TNF-α level: significant decreases
[10]; splenic lymphocytes of recipients, 10 mcg fed donor cells vs mock
  IL-2 level: significant decreases
[11]; recipients of 1 mcg fed donors
  mean group inflammatory score (CNS inflammatory foci): 4.87±0.22
[11]; recipients of 10 mcg fed donors
  mean group inflammatory score (CNS inflammatory foci): 5.91±0.22
[12]
  ongoing disease after adoptive transfer: robust inhibition
[13]; 10 mcg dosed vs mock fed
  IL-12p70 level: decreased
  TNF-α level: decreased
[13]; [17]
  IFN-γ level: significant decreases
  IL-1β level: significant decreases
  IL-2 level: significant decreases
[13]; dosed vs mock dosed
  MOG induced IL-4 production: increased
  MOG induced IL-10 production: increased
  MOG induced IL-13 production: increased
